Laboratory results published in patent publication US12668586B2, “AhR inhibitor, use thereof, and preparation method therefor” (CHONGQING PHARSCIN INNOBIO CO., LTD., priority 2021, dated 2026).

Biological target: T1, AhR (Homo sapiens, UniProt P35869)
T1 sequence (P35869 11-848): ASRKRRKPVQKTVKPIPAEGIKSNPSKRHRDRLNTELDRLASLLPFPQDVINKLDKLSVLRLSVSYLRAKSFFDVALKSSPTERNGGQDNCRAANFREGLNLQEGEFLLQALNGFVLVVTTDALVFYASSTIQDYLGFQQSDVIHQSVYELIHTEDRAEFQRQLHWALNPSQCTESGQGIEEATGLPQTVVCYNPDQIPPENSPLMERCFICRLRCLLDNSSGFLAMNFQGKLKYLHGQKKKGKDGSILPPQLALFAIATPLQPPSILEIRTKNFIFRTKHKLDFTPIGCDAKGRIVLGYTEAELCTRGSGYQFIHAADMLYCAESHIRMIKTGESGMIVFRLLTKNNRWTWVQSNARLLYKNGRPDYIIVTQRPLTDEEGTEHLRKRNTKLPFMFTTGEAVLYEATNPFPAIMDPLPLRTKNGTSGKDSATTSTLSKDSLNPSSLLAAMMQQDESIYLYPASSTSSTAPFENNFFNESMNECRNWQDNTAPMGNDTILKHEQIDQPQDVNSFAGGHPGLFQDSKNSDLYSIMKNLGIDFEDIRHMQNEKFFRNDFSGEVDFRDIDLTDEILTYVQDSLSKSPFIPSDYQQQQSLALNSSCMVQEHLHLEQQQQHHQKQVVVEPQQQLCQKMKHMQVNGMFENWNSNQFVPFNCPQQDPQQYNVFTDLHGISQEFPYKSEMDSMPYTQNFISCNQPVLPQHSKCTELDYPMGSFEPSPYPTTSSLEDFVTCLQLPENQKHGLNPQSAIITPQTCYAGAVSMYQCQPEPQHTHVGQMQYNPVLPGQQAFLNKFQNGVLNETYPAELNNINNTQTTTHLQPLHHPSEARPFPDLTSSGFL
Test: AhR inhibitory activity experiment, in vitro assay 1: HepG2-Lucia AhR cells, Lucia luciferase reporter (QUANTI-Luc)
Format: cell-based
Details: 24 hours incubation at 37° C., Lucia luciferase in supernatant, read-out: AhR inhibitory activity C50
Method: Test Example: AhR Inhibitory Activity Experiment
When QUANTI-Luc™ (InvivoGen Company) testing reagents are used, AhR gene signaling pathways can be studied by monitoring the activity of Lucia luciferase in the cell culture supernatant.
In Vitro Assay 1: Assay on Inhibitory Activity in Human Cell Lines
Adherent cell layers of HepG2-Lucia™ AhR cells in a logarithmic growth phase were washed with PBS, and then the cells were isolated with trypsin. The isolated cells were centrifuged at 1000 RPM for 5 minutes, the supernatant was removed, and the cells were re-suspended with a test medium by 1.25×10^5 cells/ml.
20,000 cells were added to each well of a 96-well plate, and the 96-well plate was placed in a CO2 incubator to incubate the cells at 37° C. for 24 hours in the absence (negative control) or presence of test compounds with gradient increasing concentrations (typical dilutions: 169 pmol/L, 0.5 nmol/L, 1.5 nmol/L; 4.6 nmol/L, 13.7 nmol/L, 41 nmol/L, 123 nmol/L, 370 nmol/L, 1.1 μmol/L, 3.3 μmol/L and 10 μmol/L, in triplicate).
The 20 μl/well cell supernatant was transferred to a black 96-well plate, a 50 μL/well QUANTI-Luc™ solution was added, and the activity of Lucia luciferase was measured on a multifunctional ELISA reader Spark 10 M (Tecan Company) through a QUANTI-Luc™ luciferase assay system.
Experimental results are shown in Table 1, wherein for IC50 values, “++++” represents IC50<0.05 μM; “+++” represents IC50 between 0.05 μM and 0.2 μM; “++” represents IC50 between 0.2 μM and 1.0 μM; and “+” represents IC50>1.0 μM.

IC50 [nM] | Compound
< 50 | COc1ccc([C@H](C)NC(=O)c2cc(-c3ccc(Cl)cc3)nc(-c3cnn(C)c3)n2)cc1F [Compound 8, (S)-6-(4-chlorophenyl)-N-(1-(3-fluoro-4-methoxyphenyl)ethyl)-2-(1-methyl-1H-pyrazol-4-yl)pyrimidine-4-formamide]
< 50 | C[C@H](NC(=O)c1cc(-c2ccc(Cl)cc2)nc(-c2cnn(C)c2)n1)c1ccnc(C#N)c1 [Compound 12, (S)-6-(4-chlorophenyl)-N-(1-(2-cyano-4-pyridine)ethyl)-2-(1-methyl-1H-pyrazol-4-yl)pyrimidine-4-formamide]
< 50 | C[C@H](NC(=O)c1cc(-c2ccc(Cl)cc2)nc(-c2cnn(C)c2)n1)c1ccc2ncn(C)c2c1 [Compound 54, (S)-6-(4-chlorophenyl)-N-(1-(1-methyl-1H-benzo[d]imidazol-6-yl)ethyl)-2-(1-methyl-1H-pyrazol-4-yl)pyrimidine-4-formamide]
< 50 | C[C@H](NC(=O)c1cc(-c2ccc(C(F)(F)F)cc2)nc(-c2cnn(C)c2)n1)c1ccnc(F)c1 [Compound 33, (S)-6-(4-trifluoromethylphenyl)-N-(1-(2-fluoro-4-pyridine)ethyl)-2-(1-methyl-1H-pyrazol-4-yl)pyrimidine-4-formamide]
< 50 | C[C@H](NC(=O)c1cc(-c2ccc(Cl)cc2)nc(-c2cnn(C)c2)n1)c1ccc(Cl)c(F)c1 [Compound 13, (S)-6-(4-chlorophenyl)-N-(1-(3-fluoro-4-chlorophenyl)ethyl)-2-(1-methyl-1H-pyrazol-4-yl)pyrimidine-4-formamide]
< 50 | C[C@H](NC(=O)c1cc(-c2ccc(Cl)cc2)nc(-c2cnn(C)c2)n1)c1ccc(C#N)c(F)c1 [Compound 57, (S)-6-(4-chlorophenyl)-N-(1-(3-fluoro-4-cyanophenyl)ethyl)-2-(1-methyl-1H-pyrazol-4-yl)pyrimidine-4-formamide]
< 50 | C[C@H](NC(=O)c1cc(-c2ccc(Cl)cc2)nc(-c2cnn(C)c2)n1)c1ccnc(C(F)(F)F)c1 [Compound 5, (S)-6-(4-chlorophenyl)-N-(1-(2-trifluoromethyl-4-pyridine)ethyl)-2-(1-methyl-1H-pyrazol-4-yl)pyrimidine-4-formamide]
< 50 | C[C@H](NC(=O)c1cc(-c2ccc(Cl)cc2)nc(-c2cnn(C)c2)n1)c1ccncc1 [Compound 4, (S)-6-(4-chlorophenyl)-N-(1-(4-pyridine)ethyl)-2-(1-methyl-1H-pyrazol-4-yl)pyrimidine-4-formamide]
> 1000 | C[C@H](NC(=O)c1cc(-c2ccc(Cl)cc2)nc(-c2cnc(Cl)nc2)n1)c1ccnc(F)c1 [Compound 36, (S)-6-(4-chlorophenyl)-N-(1-(2-fluoro-4-pyridine)ethyl)-2-(2-chloropyrimidin-5-yl)pyrimidine-4-formamide]
< 50 | C[C@H](NC(=O)c1cc(-c2ccc(Cl)cc2)nc(-c2cnn(C)c2)n1)c1ccnc(F)c1 [Compound 15, (S)-6-(4-chlorophenyl)-N-(1-(2-fluoro-4-pyridine)ethyl)-2-(1-methyl-1H-pyrazol-4-yl)pyrimidine-4-formamide]
< 50 | COc1cc([C@H](C)NC(=O)c2cc(-c3ccc(Cl)cc3)nc(-c3cnn(C)c3)n2)ccc1F [Compound 30, (S)-6-(4-chlorophenyl)-N-(1-(3-methoxy-4-fluorophenyl)ethyl)-2-(1-methyl-1H-pyrazol-4-yl)pyrimidine-4-formamide]
< 50 | C[C@H](NC(=O)c1cc(-c2ccc(Cl)cc2)nc(-c2ccnc(F)c2)n1)c1ccnc(F)c1 [Compound 38, (S)-6-(4-chlorophenyl)-N-(1-(2-fluoro-4-pyridine)ethyl)-2-(2-fluoropyridin-4-yl)pyrimidine-4-formamide]
< 50 | C[C@H](NC(=O)c1cc(-c2ccc(Cl)cc2)nc(-c2cccnc2)n1)c1ccnc(F)c1 [Compound 35, (S)-6-(4-chlorophenyl)-N-(1-(2-fluoro-4-pyridine)ethyl)-2-(3-pyridin-4-yl)pyrimidine-4-formamide]
< 50 | Cn1cc(-c2nc(C(=O)N[C@H]3CCc4ncccc43)cc(-c3ccc(C(F)(F)F)cc3)n2)cn1 [Compound 56, (S)-6-(4-trifluoromethylphenyl)-N-((S)-6,7-dihydro-5H-cyclopentano[B]pyridin-5-yl)-2-(1-methyl-1H-pyrazol-4-yl)pyrimidine-4-formamide]

The next lines start with the molecule.

Compound | IC50 [nM]
Cn1cc(-c2nc(C(=O)NC3(c4ccc(Cl)cc4)CC3)cc(-c3ccc(Cl)cc3)n2)cn1 [Compound 51, (S)-6-(4-chlorophenyl)-N-(1-(4-chlorophenyl)cyclopropylamine)-2-(1-methyl-1H-pyrazol-4-yl)pyrimidine-4-formamide] | < 50
Cn1cc(-c2nc(C(=O)N[C@H](c3ccc(F)cc3)C3CC3)cc(-c3ccc(Cl)cc3)n2)cn1 [Compound 19, (S)-6-(4-chlorophenyl)-N-(1-cyclopropyl(4-fluorophenyl))-2-(1-methyl-1H-pyrazol-4-yl)pyrimidine-4-formamide] | < 50
Cn1cc(-c2nc(C(=O)N[C@H]3CCc4ncccc43)cc(-c3ccc(OC(F)(F)F)cc3)n2)cn1 [Compound 61, (S)-6-(4-trifluoromethoxyphenyl)-N-((S)-6,7-dihydro-5H-cyclopentano[B]pyridin-5-yl)-2-(1-methyl-1H-pyrazol-4-yl)pyrimidine-4-formamide] | > 1000
Cn1cc(-c2nc(C(=O)Nc3n[nH]c4ccccc34)cc(-c3ccc(Cl)cc3)n2)cn1 [Compound 41, 6-(4-chlorophenyl)-N-(1H-indazol-3-yl)-2-(1-methyl-1H-pyrazol-4-yl)pyrimidine-4-formamide] | > 1000
Cn1cc(-c2nc(C(=O)NC3(C)CCN(CC#N)CC3)cc(-c3ccc(Cl)cc3)n2)cn1 [Compound 46, 6-(4-chlorophenyl)-N-(1-(cyanomethyl)-4-methylpiperidin-4-yl)-2-(1-methyl-1H-pyrazol-4-yl)pyrimidine-4-formamide] | < 50
Cn1cc(-c2nc(C(=O)NC3(C)CCN(CC(F)(F)F)CC3)cc(-c3ccc(Cl)cc3)n2)cn1 [Compound 44, 6-(4-chlorophenyl)-N-((4-yl-4-methylpiperidin-1-yl)trifluoroethyl)-2-(1-methyl-1H-pyrazol-4-yl)pyrimidine-4-formamide] | < 50
CC(=O)Nc1ccc([C@H](C)NC(=O)c2cc(-c3ccc(Cl)cc3)nc(-c3cnn(C)c3)n2)cc1F [Compound 53] | < 50
Cn1cc(-c2nc(C(=O)N[C@H]3CC(C)(C)c4ccccc43)cc(-c3ccc(Cl)cc3)n2)cn1 [Compound 25, (S)-6-(4-chlorophenyl)-N-((S)-(3,3-dimethyl-2,3-dihydro)-(−)-1-yl-2-indene)-2-(1-methyl-1H-pyrazol-4-yl)pyrimidine-4-formamide] | > 1000
Cn1cc(-c2nc(C(=O)N[C@H]3CCc4ncccc43)cc(-c3ccc(Cl)cc3)n2)cn1 [Compound 2, (S)-6-(4-chlorophenyl)-N-((S)-6,7-dihydro-5H-cyclopentano[B]pyridin-5-yl)-2-(1-methyl-1H-pyrazol-4-yl)pyrimidine-4-formamide] | < 50
Cn1cc(-c2nc(C(=O)NC3(C)CCN(C(=O)C4CC4)CC3)cc(-c3ccc(Cl)cc3)n2)cn1 [Compound 43, 6-(4-chlorophenyl)-N-((4-yl-4-methylpiperidin-1-yl)(cyclopropyl)ketone)-2-(1-methyl-1H-pyrazol-4-yl)pyrimidine-4-formamide] | < 50
Cn1cc(-c2nc(C(=O)N[C@H]3CCc4ccc(F)cc43)cc(-c3ccc(Cl)cc3)n2)cn1 [Compound 21, (S)-6-(4-chlorophenyl)-N-((S)-(6-fluoro-2,3-dihydro)-(−)-1-yl-2-indene)-2-(1-methyl-1H-pyrazol-4-yl)pyrimidine-4-formamide] | 50 to 200
